Measurements taken from patent US11118200B2, “Method for preparing amines from aldehydes and ketones by biocatalysis” (COMMISSARIAT A L'ENERGIE ATOMIQUE ET AUX ENERGIES …, priority 2017, dated 2021).
Marks after values point to notes of the source that are not given here.

Key:
enzyme of SEQ ID NO:4 [1] = assay: Screening of carbonyl-containing compounds with ammonia as amine source (specific activity, absorbance at 340 nm); assay type: biochemical, Aminomonas paucivorans DSM 12260; parameters: key to Detection of the expected compound, SEQ ID NO: 4: d: detected activity; nd: not detected activity; conditions: ammonia as amine source; pH 9.5; 25° C.
Method: All the reactions were conducted at 25° C. in spectrophotometric cell (10 mm light path). To a mixture of ammonium formate buffer (2 M NH4HCO2/NH4OH, pH 9.5), NADH or NADPH (0.2 mM) and an appropriate amount of purified enzyme was added. Carbonyl-containing compound (5 or 10 mM) is then added to initiate the reaction (reaction final volume 100 μL). The initial slope measured at 340 nm determined the specific activity of the enzyme according to Beer-Lambert's law and the molar absorptivity of β-NADH (ϵ=6298 M^−1 cm^−1).

enzyme of SEQ ID NO:1 [2] = assay: as above; assay type: biochemical, Mycobacterium smegmatis; conditions: 10 mM of carbonyl-containing compound, ammonia as amine source
Method: (§1) All the reactions were conducted at 25° C. in spectrophotometric cell (10 mm light path). To a mixture of ammonium formate buffer (2 M NH4HCO2/NH4OH, pH 9.5), NADH or NADPH (0.2 mM) and an appropriate amount of purified enzyme was added.

enzyme of SEQ ID NO:2 [3] = assay: as above; assay type: biochemical, Cystobacter fuscus DSM 2262; conditions: 10 mM of carbonyl-containing compound, ammonia as amine source
Method: as §1

enzyme of SEQ ID NO:3 [4] = assay: as above; assay type: biochemical, Microbacterium sp. MA1; conditions: 0.2 mM NADPH (best of NADH/NADPH); 10 mM of carbonyl-containing compound; ammonia as amine source
Method: as §1

enzyme of SEQ ID NO:1 [5] = assay: Reduction of cyclic imine substrates; assay type: biochemical, Mycobacterium smegmatis
enzyme of SEQ ID NO:2 [6] = assay: Reduction of cyclic imine substrates; assay type: biochemical, Cystobacter fuscus DSM 2262
enzyme of SEQ ID NO:3 [7] = assay: Reduction of cyclic imine substrates; assay type: biochemical, Microbacterium sp. MA1
enzyme of SEQ ID NO:4 [8] = assay: Reduction of cyclic imine substrates; assay type: biochemical, Aminomonas paucivorans DSM 12260
[9] = 0.2 mM NADH (best of NADH/NADPH)
[10] = 0.2 mM NADPH (best of NADH/NADPH)

Row | Structure (SMILES) | Specific activity, SEQ ID NO: 2 (enzyme of SEQ ID NO:2 [3]; [10]) | Specific activity, SEQ ID NO: 3 (enzyme of SEQ ID NO:3 [4]) | Specific activity, SEQ ID NO: 1 (enzyme of SEQ ID NO:1 [2]; [10]) | other results
1 | O=Cc1ccccc1 | – | – | – | Detection of the expected compound, SEQ ID NO: 4 (enzyme of SEQ ID NO:4 [1]): d
2 | CC1CCC(=O)CC1 | 20.4^b mU.mg^-1 | 170.1^b mU.mg^-1 | – | Specific activity, SEQ ID NO: 1 (enzyme of SEQ ID NO:1 [2]; [9]): 85.2^a mU.mg^-1
3 | CC1CCCC1=O (centres unmarked) | 8.8^b mU.mg^-1 | 90.3^b mU.mg^-1 | 65.2^b mU.mg^-1 | –
4 | CCC(=O)CC | 3.6^b mU.mg^-1 | 192.0^b mU.mg^-1 | 48.2^b mU.mg^-1 | –
5 | CC(=O)C(C)O (centres unmarked) | 42.4^b mU.mg^-1 | 324.4^b mU.mg^-1 | 177.7^b mU.mg^-1 | –
6 | CC1CC(=O)CC(C)C1 (centres unmarked) | – | 61.6^b mU.mg^-1 | 9.7^b mU.mg^-1 | –
7 | O=C1CCCC1 | 24.2^b mU.mg^-1 | 60.6^b mU.mg^-1 | 5.6^b mU.mg^-1 | –
8 | CC1CCC(=O)C1 (centres unmarked) | 13.9^b mU.mg^-1 | 23.3^b mU.mg^-1 | 7.7^b mU.mg^-1 | –
9 | CC(=O)C1CCCCC1 | – | 64.0^b mU.mg^-1 | 2.1^b mU.mg^-1 | –
10 | O=C1C=CCCC1 | – | 37.1^b mU.mg^-1 | 7.4^b mU.mg^-1 | Specific activity, SEQ ID NO: 2 (enzyme of SEQ ID NO:2 [3]; [9]): 2.5^a mU.mg^-1
11 | CCCC(=O)CC | – | 28.1^b mU.mg^-1 | 6.8^b mU.mg^-1 | –
12 | CC(=O)C(C)C | – | 245.6^b mU.mg^-1 | 125.8^b mU.mg^-1 | Specific activity, SEQ ID NO: 2 (enzyme of SEQ ID NO:2 [3]; [9]): 68.2^a mU.mg^-1
13 | CC1=NCCC1 | – | – | – | reduction of cyclic imine by enzyme of SEQ ID NO:1 (in words) (enzyme of SEQ ID NO:1 [5]): able to catalyze; reduction of cyclic imine by enzyme of SEQ ID NO:2 (in words) (enzyme of SEQ ID NO:2 [6]): able to catalyze; reduction of cyclic imine by enzyme of SEQ ID NO:3 (in words) (enzyme of SEQ ID NO:3 [7]): able to catalyze; reduction of cyclic imine by enzyme of SEQ ID NO:4 (in words) (enzyme of SEQ ID NO:4 [8]): able to catalyze
